Test results: US12599136B2, “Substituted isophthalic acid diamides and their use as herbicides” (Bayer Aktiengesellschaft, priority 2020, dated 2026)

Assays:
Type in all cases: in vivo
Viola tricolor [1] = assay: Pre-emergence herbicidal action against VIOTR
Excerpt: (§1) Seeds of monocotyledonous and dicotyledonous weed plants and crop plants are laid out in sandy loam soil in wood-fiber pots and covered with soil. The compounds of the invention, formulated in the form of wettable powders (WP) or as emulsion concentrates (EC), are then applied to the surface of the covering soil in the form of an aqueous suspension or emulsion at a water application rate equivalent to 600 to 800 l/ha, with addition of 0.2% wetting agent. After the treatment, the pots are placed in a greenhouse and kept under good growth conditions for the trial plants. The damage to the test plants is scored visually after a test period of 3 weeks by comparison with untreated controls (herbicidal activity in percent (%): 100% activity=the plants have died, 0% activity=like control plants). […] The tables below illustrate, in an illustrative manner, the post-emergence herbicidal action of the compounds of the invention, the herbicidal activity being stated in percent.

Abutilon theophrasti [2] = assay: Pre-emergence herbicidal action against ABUTH; conditions: visual score after 3 weeks vs untreated controls
Excerpt: as §1

Matricaria inodora [3] = assay: Pre-emergence herbicidal action against MATIN; conditions: visual score after 3 weeks vs untreated controls
Excerpt: as §1

Setaria viridis [4] = assay: Pre-emergence herbicidal action against SETVI
Excerpt: as §1

Amaranthus retroflexus [5] = assay: Pre-emergence herbicidal action against AMARE; conditions: visual score after 3 weeks vs untreated controls
Excerpt: as §1

Digitaria sanguinalis = assay: Pre-emergence herbicidal action against DIGSA
Excerpt: as §1

Viola tricolor [6] = assay: Post-emergence herbicidal action against VIOTR
Protocol: (§2) Seeds of monocotyledonous and dicotyledonous weed and crop plants are laid out in sandy loam soil in wood-fiber pots, covered with soil and cultivated in a greenhouse under good growth conditions. 2 to 3 weeks after sowing, the test plants are treated at the one-leaf stage. The compounds of the invention, formulated in the form of wettable powders (WP) or as emulsion concentrates (EC), are then sprayed onto the green parts of the plants in the form of an aqueous suspension or emulsion at a water application rate equivalent to 600 to 800 l/ha, with addition of 0.2% wetting agent. After the test plants have been left to stand in the greenhouse under optimal growth conditions for about 3 weeks, the action of the preparations is assessed visually in comparison to untreated controls (herbicidal action in percent (%): 100% activity=the plants have died, 0% activity=like control plants). […] The tables below illustrate, in an illustrative manner, the post-emergence herbicidal action of the compounds of the invention, the herbicidal activity being stated in percent.

Veronica persica [7] = assay: Pre-emergence herbicidal action against VERPE
Excerpt: as §1

Pharbitis purpurea = assay: Post-emergence herbicidal action against PHBPU; conditions: 20 g/ha, visual assessment about 3 weeks after treatment
Protocol: as §2

Avena fatua = assay: Post-emergence herbicidal action against AVEFA; conditions: 20 g/ha, visual assessment about 3 weeks after treatment
Protocol: as §2

Echinochloa crus-galli [8] = assay: Post-emergence herbicidal action against ECHCG; conditions: visual assessment about 3 weeks after treatment
Protocol: as §2

Alopecurus myosuroides [9] = assay: Pre-emergence herbicidal action against ALOMY; conditions: visual score after 3 weeks vs untreated controls
Excerpt: as §1

Setaria viridis [10] = assay: Post-emergence herbicidal action against SETVI; conditions: visual assessment about 3 weeks after treatment
Protocol: as §2

Alopecurus myosuroides [11] = assay: Post-emergence herbicidal action against ALOMY; conditions: 20 g/ha
Protocol: as §2

Matricaria inodora [12] = assay: Post-emergence herbicidal action against MATIN; conditions: visual assessment about 3 weeks after treatment
Protocol: as §2

Amaranthus retroflexus [13] = assay: Post-emergence herbicidal action against AMARE; conditions: visual assessment about 3 weeks after treatment
Protocol: as §2

Echinochloa crus-galli [14] = assay: Pre-emergence herbicidal action against ECHCG; conditions: visual score after 3 weeks vs untreated controls
Excerpt: as §1

Abutilon theophrasti [15] = assay: Post-emergence herbicidal action against ABUTH
Protocol: as §2

Polygonum convolvulus = assay: Pre-emergence herbicidal action against POLCO; conditions: 80 g/ha
Excerpt: as §1

Veronica persica [16] = assay: Post-emergence herbicidal action against VERPE; conditions: 20 g/ha, visual assessment about 3 weeks after treatment
Protocol: as §2

Cyperus esculentus = assay: Pre-emergence herbicidal action against CYPES; conditions: visual score after 3 weeks vs untreated controls
Excerpt: as §1

Stellaria media [17] = assay: Pre-emergence herbicidal action against STEME; conditions: 320 g/ha
Excerpt: as §1

Stellaria media [18] = assay: Post-emergence herbicidal action against STEME; conditions: 80 g/ha, visual assessment about 3 weeks after treatment
Protocol: as §2

Structure (SMILES) | Pre-emergence action against VIOTR (Viola tricolor [1]; 80 g/ha) [%] | Pre-emergence action against ABUTH (Abutilon theophrasti [2]; 20 g/ha) [%] | Pre-emergence action against ABUTH (Abutilon theophrasti [2]; 80 g/ha) [%] | Pre-emergence action against MATIN (Matricaria inodora [3]; 80 g/ha) [%] | Pre-emergence action against SETVI (Setaria viridis [4]; 80 g/ha) [%] | Pre-emergence action against AMARE (Amaranthus retroflexus [5]; 80 g/ha) [%] | Pre-emergence action against DIGSA (Digitaria sanguinalis; 80 g/ha) [%] | Post-emergence action against VIOTR in % (Viola tricolor [6]; 20 g/ha) [%] | Pre-emergence action against VERPE (Veronica persica [7]; 80 g/ha) [%] | Post-emergence action against PHBPU in % (Pharbitis purpurea) [%] | Pre-emergence action against VIOTR (Viola tricolor [1]; 20 g/ha) [%] | Pre-emergence action against MATIN (Matricaria inodora [3]; 20 g/ha) [%] | Post-emergence action against ECHCG in % (Echinochloa crus-galli [8]; 20 g/ha) [%] | Pre-emergence action against ALOMY (Alopecurus myosuroides [9]; 80 g/ha) [%] | Post-emergence action against SETVI in % (Setaria viridis [10]; 20 g/ha) [%] | Post-emergence action against ALOMY (Alopecurus myosuroides [11]) [%] | Pre-emergence action against AMARE (Amaranthus retroflexus [5]; 20 g/ha) [%] | Pre-emergence action against DIGSA (Digitaria sanguinalis; 20 g/ha) [%] | Post-emergence action against MATIN in % (Matricaria inodora [12]; 20 g/ha) [%] | Pre-emergence action against ECHCG (Echinochloa crus-galli [14]; 80 g/ha) [%] | other results
CCOC(=O)[C@@H]1CCCN1C(=O)c1c(C(F)(F)F)ccc(C(=O)Nc2nnnn2CC)c1Cl [Example 2-398] | 100 | 80 | 100 | 100 | 80 | 100 | 90 |  |  |  |  |  |  |  |  |  |  |  |  |  | 
CCN(CC)C(=O)c1c(C(F)(F)F)ccc(C(=O)Nc2nnnn2CC)c1C [Example 2-31] | 100 | 100 | 100 | 100 | 90 | 100 | 100 | 100 | 80 | 90 | 100 | 90 | 90 | 80 | 90 | 80 | 100 | 90 | 90 |  | Post-emergence action against VIOTR in % (Viola tricolor [6]; 5 g/ha): 100%; Post-emergence action against AVEFA in % (Avena fatua): 80%; Post-emergence action against ECHCG in % (Echinochloa crus-galli [8]; 5 g/ha): 80%; Post-emergence action against SETVI in % (Setaria viridis [10]; 5 g/ha): 80%; Post-emergence action against MATIN in % (Matricaria inodora [12]; 5 g/ha): 80%
CCOC(=O)[C@@H]1CCCN1C(=O)c1c(C(F)(F)F)ccc(C(=O)Nc2nnnn2CC)c1C [Example 2-399] | 100 | 100 | 100 | 100 | 100 | 100 | 100 |  | 100 | 90 | 90 | 90 | 80 |  |  |  | 90 | 90 | 80 | 90 | Post-emergence action against AMARE in % (Amaranthus retroflexus [13]; 20 g/ha): 80%; Pre-emergence action against VERPE (Veronica persica [7]; 20 g/ha): 100%
CCOC(=O)[C@@H]1CCCN1C(=O)c1c(C(F)(F)F)ccc(C(=O)Nc2nnnn2C)c1C [Example 1-401] |  | 100 | 100 | 90 | 100 | 100 | 100 |  |  | 80 |  |  |  |  |  |  | 100 | 90 | 90 |  | 
CCN(C(=O)c1c(C(F)(F)F)ccc(C(=O)Nc2nnnn2CC)c1Cl)C1CC1 [Example 2-136] | 100 | 100 | 100 | 100 | 100 | 100 | 100 | 100 |  |  | 100 | 80 | 90 | 100 |  | 90 | 100 | 90 | 80 | 90 | Post-emergence action against VIOTR in % (Viola tricolor [6]; 5 g/ha): 100%; Post-emergence action against AMARE in % (Amaranthus retroflexus [13]; 5 g/ha): 100%; Post-emergence action against AMARE in % (Amaranthus retroflexus [13]; 20 g/ha): 100%; Post-emergence action against AVEFA in % (Avena fatua): 80%; Post-emergence action against ABUTH (Abutilon theophrasti [15]; 5 g/ha): 80%; Post-emergence action against ABUTH (Abutilon theophrasti [15]; 20 g/ha): 90%; Pre-emergence action against ALOMY (Alopecurus myosuroides [9]; 20 g/ha): 90%
CCn1nnnc1NC(=O)c1ccc(C(F)F)c(C(=O)N(C)C)c1C [Example 2-50] |  |  | 100 | 90 |  | 100 |  | 90 | 80 |  |  | 90 | 90 | 90 | 80 | 80 | 90 |  |  | 80 | Post-emergence action against AMARE in % (Amaranthus retroflexus [13]; 5 g/ha): 100%; Post-emergence action against AMARE in % (Amaranthus retroflexus [13]; 20 g/ha): 100%; Pre-emergence action against POLCO (Polygonum convolvulus): 90%; Post-emergence action against ABUTH (Abutilon theophrasti [15]; 5 g/ha): 90%; Post-emergence action against ABUTH (Abutilon theophrasti [15]; 20 g/ha): 90%; Post-emergence action against ECHCG in % (Echinochloa crus-galli [8]; 5 g/ha): 80%; Post-emergence action against VERPE in % (Veronica persica [16]): 90%
Cc1c(C(=O)Nc2nnnn2C)ccc(S(C)(=O)=O)c1C(=O)N(C)C [Example 1-395] | 80 |  | 90 |  |  | 100 |  |  | 100 |  |  |  | 100 |  |  |  |  |  |  |  | Post-emergence action against VIOTR in % (Viola tricolor [6]; 80 g/ha): 90%; Post-emergence action against AMARE in % (Amaranthus retroflexus [13]; 80 g/ha): 80%; Pre-emergence action against VERPE (Veronica persica [7]; 20 g/ha): 90%; Pre-emergence action against VERPE (Veronica persica [7]; 320 g/ha): 100%; Pre-emergence action against CYPES (Cyperus esculentus; 80 g/ha): 100%; Pre-emergence action against CYPES (Cyperus esculentus; 320 g/ha): 100%; Pre-emergence action against ECHCG (Echinochloa crus-galli [14]; 320 g/ha): 100%; Pre-emergence action against VIOTR (Viola tricolor [1]; 320 g/ha): 100%; Pre-emergence action against STEME (Stellaria media [17]): 100%; Post-emergence action against STEME in % (Stellaria media [18]): 100%; Pre-emergence action against ABUTH (Abutilon theophrasti [2]; Dosage column 320 g/ha (heading prints 3200 g/ha)): 100%; Pre-emergence action against MATIN (Matricaria inodora [3]; 320 g/ha): 100%; Post-emergence action against ABUTH (Abutilon theophrasti [15]; 80 g/ha): 100%; Post-emergence action against ECHCG in % (Echinochloa crus-galli [8]; 80 g/ha): 100%; Post-emergence action against SETVI in % (Setaria viridis [10]; 80 g/ha): 90%; Pre-emergence action against SETVI (Setaria viridis [4]; 320 g/ha): 100%; Pre-emergence action against AMARE (Amaranthus retroflexus [5]; 320 g/ha): 100%
Cc1c(C(=O)Nc2nnnn2C)ccc(C(F)(F)F)c1C(=O)N(C)C1CC1 [Example 1-21] | 100 |  | 100 | 100 | 100 | 100 | 100 |  | 80 |  | 90 | 80 | 90 | 90 | 90 | 80 | 100 | 100 | 80 | 90 | Post-emergence action against VERPE in % (Veronica persica [16]): 80%
